“And” between values parts separate entries of the source, which are not always exact repeats. Equal values may be shown once.
Columns and labels:
[1] = system: MzChA-1 (cholangiocarcinoma) cells or HepG2 cells; experiment: xenograft mice models, tumor volume; format: in vivo; conditions: SAMe 100 mg/kg/day orally
Method: Mice were injected with MzChA-1 (cholangiocarcinoma) cells or HepG2 (immortalized cell line consisting of human liver carcinoma cells) cells. In mice treated with OCA, 30/mg/kg/day of OCA was administered orally. In mice treated with SAMe, 100 mg/kg/day was administered orally.

[2] = system: HepG2 cell line; experiment: Growth of HepG2 cells by BrdU incorporation; format: cell-based, human
Method: HepG2 cells were treated with 100 μM SAMe, 10 μM OCA individually or combined for 24 hours. Growth was determined using BrdU incorporation. SAMe was mixed in saline and OCA was mixed in DMSO (0.1% final), which yielded the same values. As shown in Table 1 and FIG. 2, while OCA alone induced growth of the cancer cell line, SAMe inhibited growth of the cancer cell line even in the presence of OCA. SAMe, OCA and SAMe+OCA were 58.65%, 124.05% and 89.5%, respectively, of their respective controls.
(§1) HepG2 (immortalized cell line consisting of human liver carcinoma cells) cells were treated with 100 μM SAMe, 10 nM GW4064 individually or combined for 24 hours. Growth was determined using BrdU incorporation. SAMe was mixed in saline and GW4064 was mixed in DMSO (0.1% final), which yielded the same values. As shown in Table 2 and FIG. 3, while GW4064 alone induced growth of the cancer cell line, SAMe inhibited growth of the cancer cell line even in the presence of GW4064. SAMe, GW4064 and SAMe+GW4064 were 75.52%, 155.70% and 116.97%, respectively, of their respective controls.
as §1, with “Tropifexor” for “GW4064”, “Tropifexor.” for “GW4064.”, “SAMe+Tropifexor” for “SAMe+GW4064”, “151.04%” for “155.70%”, “114.77%,” for “116.97%,”

[3] = system: MAFG; experiment: expression of the oncogene MAFG
[4] = HepG2, 100 μM SAMe in saline, 24 hours
[5] = HepG2, 100 μM SAMe, 24 hours (Example 2)
[6] = HepG2, 10 μM OCA in DMSO, 24 hours
[7] = HepG2, 10 nM Tropifexor, 24 hours
[8] = HepG2, 10 nM Tropifexor, 24 hours, listed as Tropi

Compound: C[S+](CC[C@H](N)C(=O)O)C[C@H]1O[C@@H](n2cnc3c(N)ncnc32)[C@H](O)[C@@H]1O (stereo partly drawn) [SAMe, S-adenosylmethionine]
- tumor volume versus control group [1]: lower than the control group
- BrdU incorporation, Ave [2, 4]: 0.09
- BrdU incorporation, single readings [2, 4]: 0.103 and 0.089 and 0.101 and 0.055 and 0.075
- BrdU Incorporation, % of respective controls ([2]; HepG2, 100 μM SAMe, 24 hours (Example 1)): 58.65%
- BrdU Incorporation OD540 nm, AVE [2, 5]: 0.07287
- BrdU Incorporation OD540 nm, single readings [2, 5]: 0.065 and 0.066 and 0.064 and 0.072 and 0.059 and 0.113 and 0.08
- BrdU Incorporation, % of respective controls [2, 5]: 75.52%
- effect on expression of MAFG [3]: decreases expression of MAFG

Compound: CC[C@H]1[C@@H](O)[C@@H]2[C@H](CC[C@]3(C)[C@@H]([C@H](C)CCC(=O)O)CC[C@@H]23)[C@@]2(C)CC[C@@H](O)C[C@@H]12 [OCA, 6α-ethyl-chenodeoxycholic acid]
- BrdU incorporation, Ave [2, 6]: 0.18
- BrdU incorporation, single readings [2, 6]: 0.181 and 0.175 and 0.202 and 0.186 and 0.162 and 0.177
- BrdU Incorporation, % of respective controls ([2]; HepG2, 10 μM OCA, 24 hours): 124.05%

Compound: O=C(O)c1cc(F)c2nc(N3[C@@H]4CC[C@H]3C[C@@H](OCc3c(-c5ccccc5OC(F)(F)F)noc3C3CC3)C4)sc2c1 [Tropifexor]
- BrdU Incorporation OD540 nm, AVE [2, 7]: 0.1457
- BrdU Incorporation, % of respective controls [2, 7]: 151.04%
- BrdU Incorporation OD540 nm, single readings [2, 8]: 0.153 and 0.121 and 0.134 and 0.125 and 0.105 and 0.173 and 0.202
- BrdU Incorporation, % of respective controls [2, 8]: 151.0363%

Compound: CC(C)c1onc(-c2c(Cl)cccc2Cl)c1COc1ccc(/C=C/c2cccc(C(=O)O)c2)c(Cl)c1 [GW4064]
- BrdU Incorporation OD540 nm, AVE ([2]; HepG2, 10 nM GW4064, 24 hours): 0.1502
- BrdU Incorporation, % of respective controls ([2]; HepG2, 10 nM GW4064, 24 hours): 155.70%
- BrdU Incorporation, % of respective controls ([2]; HepG2, 10 nM GW4064, 24 hours, listed as GW): 155.6995%

Reference: patent publication US20210121493A1, “METHODS FOR TREATING LIVER DISEASES” (Cedars-Sinai Medical Center, priority 2017, published 2021)
